Reference: patent publication EP4578856A1, “HETEROCYCLIC COMPOUND” (Ubience Inc., priority 2022, dated 2024)

Target: ROCK2 protein (Homo sapiens, UniProt O75116)
Assay: Degradation inducing activity of ROCK2 protein in HUVEC cells, Western blotting (Simple Western JESS)
Type: cell-based
Parameters: endogenous in cells; host or cells: HUVEC (ATCC CRL-1730)
Conditions: HUVEC, 24 h; for inhibition at 1 µM: degradation rate at 1 µM; for inhibition at 10 µM: degradation rate at 10 µM
Procedure: In vitro degradation inducing activity of ROCK2 protein of compounds of Examples was evaluated by Western Blotting (WB).
By a test compound, 10 mM DMSO solution was prepared, which was used as a 10 µM test compound solution. Further, the solution was diluted 10-fold with DMSO to prepare a 1 mM solution, which was used as a 1 µM test compound solution.
HUVEC cells (ATCC: CRL-1730, Lot: 70041472) were cultured in F-12K medium supplemented with 10% FBS, 0.1 mg/mL heparin, […] Endothelial Cell Growth Supplement (ECGS, Corning), and 1% Penicillin/Streptomycin. The HUVEC cells seeded in a 24 well plate at 50,000 cells/well/1 mL were cultured for 24 hours, and then 1 µL of DMSO or a test compound solution was added thereto and treatment was performed for 24 hours. Cells were harvested and lysed for 20 minutes on ice using lysis buffer (Cell Signaling Technology, Cat#9803) supplemented with protease inhibitor cocktail (Sigma, Cat#P8340; Roche, Cat#P11873580001), and phosphatase inhibitor cocktail (Sigma, Cat#P5726, P0044). The lysate was sonicated (15 seconds, amplitude 30%, 1 cycle) and then centrifuged at 12500 rpm for 15 minutes at 4°C. The protein concentration was determined by BCA assay kit (Thermo Fisher Scientific, Cat#23225).
The western blotting was performed using Simple Western JESS (protein simple). A cell lysis sample (protein amount; about 1.06 µg) was loaded on a plate of Simple Western JESS, and the expression level of ROCK2 protein was detected using a 12-230 kDa Wes Separation Module (Protein simple, Cat#SM-WO04), an Anti-Rabbit Detection Module for Wes (Protein simple, Cat#DM-001), and a Total Protein Detection Module for Wes (Protein simple, Cat#DM-TP01). As the primary antibody, a material obtained by diluting ROCK2 (D1B1) Rabbit mAb (Cell Signaling Technology, Cat#9029) at 1:10 was used, and as the secondary antibody, a material obtained by diluting HRP-labeled anti-rabbit IgG antibody (Cell Signaling Technology, Cat#7074S) at 1:100 was used. The expression level of the target protein was standardized using the total protein amount loaded as a reference. The standardized expression level data of the control (DMSO) was taken as 100%, and the degradation rate (%) was calculated from the average standardized expression level data of the test compound. All analysis steps, such as data detection and analysis, are fully automated.
With respect to the ROCK2 protein degradation rate of the test compound, the protein degradation rates (%) at the evaluation concentrations were set to A ≥ 75%, 75% > B ≥ 50%, 50% > C ≥ 25%, and D < 25%, and are shown in Table 7.

Chain of ROCK2 protein (O75116 whole entry): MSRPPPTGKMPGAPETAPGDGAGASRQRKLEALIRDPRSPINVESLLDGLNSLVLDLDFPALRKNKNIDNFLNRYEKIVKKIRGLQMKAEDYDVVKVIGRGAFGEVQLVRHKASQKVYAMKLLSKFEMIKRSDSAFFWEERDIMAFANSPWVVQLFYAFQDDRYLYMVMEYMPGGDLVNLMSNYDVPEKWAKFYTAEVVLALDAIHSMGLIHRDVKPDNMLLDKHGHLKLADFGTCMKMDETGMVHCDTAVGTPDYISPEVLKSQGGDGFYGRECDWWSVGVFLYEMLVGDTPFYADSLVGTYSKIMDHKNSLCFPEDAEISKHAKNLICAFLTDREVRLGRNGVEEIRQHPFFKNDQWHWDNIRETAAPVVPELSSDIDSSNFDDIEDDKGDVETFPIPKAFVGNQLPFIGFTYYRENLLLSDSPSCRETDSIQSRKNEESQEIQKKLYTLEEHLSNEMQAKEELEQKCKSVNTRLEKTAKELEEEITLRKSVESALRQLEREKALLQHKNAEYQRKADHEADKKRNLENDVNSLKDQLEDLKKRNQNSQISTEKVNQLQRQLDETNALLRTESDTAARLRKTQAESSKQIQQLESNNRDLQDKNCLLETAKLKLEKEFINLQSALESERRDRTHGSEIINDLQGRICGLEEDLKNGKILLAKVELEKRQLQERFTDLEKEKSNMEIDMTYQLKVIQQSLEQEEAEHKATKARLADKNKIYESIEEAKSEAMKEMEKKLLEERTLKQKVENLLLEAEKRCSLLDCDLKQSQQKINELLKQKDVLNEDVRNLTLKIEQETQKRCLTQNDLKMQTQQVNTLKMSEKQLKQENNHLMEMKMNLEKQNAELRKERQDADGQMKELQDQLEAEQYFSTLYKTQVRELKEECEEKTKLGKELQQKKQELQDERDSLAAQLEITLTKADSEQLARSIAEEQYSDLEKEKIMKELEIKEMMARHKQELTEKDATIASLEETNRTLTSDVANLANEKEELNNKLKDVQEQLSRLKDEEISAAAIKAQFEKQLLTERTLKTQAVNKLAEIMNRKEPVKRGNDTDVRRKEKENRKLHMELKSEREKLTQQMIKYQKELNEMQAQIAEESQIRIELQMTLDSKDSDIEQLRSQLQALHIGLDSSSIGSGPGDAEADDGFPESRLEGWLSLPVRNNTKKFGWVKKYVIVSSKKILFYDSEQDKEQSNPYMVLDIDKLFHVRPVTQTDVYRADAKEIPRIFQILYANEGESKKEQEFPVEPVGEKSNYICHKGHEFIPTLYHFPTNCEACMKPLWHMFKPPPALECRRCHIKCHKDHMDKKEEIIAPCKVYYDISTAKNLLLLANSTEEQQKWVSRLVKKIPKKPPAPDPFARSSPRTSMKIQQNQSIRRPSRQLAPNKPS

SMILES | inhibition at 1 µM | inhibition at 10 µM
COC[C@H]1CN[C@H](C)CN1CC(=O)N1CC(C)(C)c2ncc(Cc3ccccc3OCCOCCOCCOCCOCCN[C@H](Cc3cccc(F)c3)C(=O)Nc3ccc(-c4ccncc4)cc3)cc21 [Example 74, (R)-2-(3-Fluorobenzyl)-17-(2-((1-(2-((2R,5R)-2-(methoxymethyl)-5-methylpiperazin-1-yl)acetyl)-3,3-dimethyl-2,3-dihydro-1H-pyrrolo[3,2-b]pyridin-6-yl)methyl)phenoxy)-N-(4-(pyridin-4-yl)phenyl)-6,9,12,15-tetraoxa-3-azaheptadecanamide] | < 25% | 50 to 75%
COC[C@H]1CN[C@H](C)CN1CC(=O)N1CC(C)(C)c2ncc(Cc3ccccc3OCCOCCN[C@H](Cc3cccc(F)c3)C(=O)Nc3ccc(-c4ccncc4)cc3)cc21 [Example 71, (R)-3-(3-Fluorophenyl)-2-((2-(2-(2-((1-(2-((2R,5R)-2-(methoxymethyl)-5-methylpiperazin-1-yl)acetyl)-3,3-dimethyl-2,3-dihydro-1H-pyrrolo[3,2-b]pyridin-6-yl)methyl)phenoxy)ethoxy)ethyl)amino)-N-(4-(pyridin-4-yl)phenyl)propanamide] | 25 to 50% | < 25%
C[C@@H]1CN(CC(=O)N2CC(C)(C)c3ncc(Cc4ccc(F)cc4)cc32)[C@@H](CN(C)CCOCCOCCOCCOCCOCCOCCN[C@H](Cc2cccc(F)c2)C(=O)Nc2ccc(-c3ccncc3)cc2)CN1 [Example 13, (R)-24-(3-Fluorobenzyl)-1-((2R,5R)-1-(2-(6-(4-fluorobenzyl)-3,3-dimethyl-2,3-dihydro-1H-pyrrolo[3,2-b]pyridin-1-yl)-2-oxoethyl)-5-methylpiperazin-2-yl)-2-methyl-N-(4-(pyridin-4-yl)phenyl)-5,8,11,14,17,20-hexaoxa-2,23-diazapentacosan-25-amide] | < 25% | < 25%
C[C@@H]1CN(CC(=O)N2CC(C)(C)c3ncc(Cc4ccc(F)cc4)cc32)[C@@H](CN(C)CCOCCOCCN[C@H](C)c2ccc(C(=O)Nc3ccncc3)cc2)CN1 [Example 2, 4-((R)-1-((2R,5R)-1-(2-(6-(4-Fluorobenzyl)-3,3-dimethyl-2,3-dihydro-1H-pyrrolo[3,2-b]pyridin-1-yl)-2-oxoethyl)-5-methylpiperazin-2-yl)-2-methyl-5,8-dioxa-2,11-diazatridecan-12-yl)-N-(pyridin-4-yl)benzamide] | < 25% | 50 to 75%
C[C@@H]1CN(CC(=O)N2CC(C)(C)c3ncc(Cc4ccc(F)cc4)cc32)[C@@H](CN(C)CCOCCOCCOCCOCCOCCOCCN[C@H](C)c2ccc(C(=O)Nc3ccncc3)cc2)CN1 [Example 6, 4-((R)-1-((2R,5R)-1-(2-(6-(4-Fluorobenzyl)-3,3-dimethyl-2,3-dihydro-1H-pyrrolo[3,2-b]pyridin-1-yl)-2-oxoethyl)-5-methylpiperazin-2-yl)-2-methyl-5,8,11,14,17,20-hexaoxa-2,23-diazapentacosan-24-yl)-N-(pyridin-4-yl)benzamide] | 50 to 75% | ≥ 75%
C[C@@H]1CN(CC(=O)N2CC(C)(C)c3ncc(Cc4ccc(F)cc4)cc32)[C@@H](CN(C)CCOCCOCCOCCN[C@H](Cc2cccc(F)c2)C(=O)Nc2ccc(-c3ccncc3)cc2)CN1 [Example 10, (R)-15-(3-Fluorobenzyl)-1-((2R,5R)-1-(2-(6-(4-fluorobenzyl)-3,3-dimethyl-2,3-dihydro-1H-pyrrolo[3,2-b]pyridin-1-yl)-2-oxoethyl)-5-methylpiperazin-2-yl)-2-methyl-N-(4-(pyridin-4-yl)phenyl)-5,8,11-trioxa-2,14-diazahexadecan-16-amide] | 25 to 50% | ≥ 75%
C[C@@H]1CN(CC(=O)N2CC(C)(C)c3ncc(Cc4ccc(F)cc4)cc32)[C@@H](CN(C)CCOCCOCCOCCNC[C@@H](C(=O)Nc2ccc3cnccc3c2)c2ccccc2)CN1 [Example 17, (S)-1-((2R,5R)-1-(2-(6-(4-Fluorobenzyl)-3,3-dimethyl-2,3-dihydro-1H-pyrrolo[3,2-b]pyridin-1-yl)-2-oxoethyl)-5-methylpiperazin-2-yl)-N-(isoquinolin-6-yl)-2-methyl-16-phenyl-5,8,11-trioxa-2,14-diazaheptadecan-17-amide] | 25 to 50% | ≥ 75%
COC[C@H]1CN[C@H](C)CN1CC(=O)N1CC(C)(C)c2ncc(Cc3ccccc3OCCOCCN[C@H](C)c3ccc(C(=O)Nc4ccncc4)cc3)cc21 [Example 64, 4-((R)-1-((2-(2-(2-((1-(2-((2R,5R)-2-(Methoxymethyl)-5-methylpiperazin-1-yl)acetyl)-3,3-dimethyl-2,3-dihydro-1H-pyrrolo[3,2-b]pyridin-6-yl)methyl)phenoxy)ethoxy)ethyl)amino)ethyl)-N-(pyridin-4-yl)benzamide] | < 25% | 50 to 75%
COC[C@H]1CN[C@H](C)CN1CC(=O)N1CC(C)(C)c2ncc(Cc3ccccc3OCCOCCOCCOCCN[C@H](Cc3cccc(F)c3)C(=O)Nc3ccc(-c4ccncc4)cc3)cc21 [Example 73, (R)-2-(3-Fluorobenzyl)-14-(2-((1-(2-((2R,5R)-2-(methoxymethyl)-5-methylpiperazin-1-yl)acetyl)-3,3-dimethyl-2,3-dihydro-1H-pyrrolo[3,2-b]pyridin-6-yl)methyl)phenoxy)-N-(4-(pyridin-4-yl)phenyl)-6,9,12-trioxa-3-azatetradecanamide] | < 25% | ≥ 75%

Continued, values first:

inhibition at 1 µM | inhibition at 10 µM | SMILES
≥ 75% | ≥ 75% | COC[C@H]1CN[C@H](C)CN1CC(=O)N1CC(C)(C)c2ncc(Cc3ccccc3OCCOCCOCCNC[C@@H](C(=O)Nc3ccc4cnccc4c3)c3ccccc3)cc21 [Example 79, (S)-N-(Isoquinolin-6-yl)-3-((2-(2-(2-(2-((1-(2-((2R,5R)-2-(methoxymethyl)-5-methylpiperazin-1-yl)acetyl)-3,3-dimethyl-2,3-dihydro-1H-pyrrolo[3,2-b]pyridin-6-yl)methyl)phenoxy)ethoxy)ethoxy)ethyl)amino)-2-phenylpropanamide]
25 to 50% | ≥ 75% | COC[C@H]1CN[C@H](C)CN1CC(=O)N1CC(C)(C)c2ncc(Cc3cccc(OCCOCCOCCOCCOCCOCCOCCNC[C@@H](C(=O)Nc4ccc5cnccc5c4)c4ccccc4)c3)cc21 [Example 62, (S)-N-(Isoquinolin-6-yl)-1-(3-((1-(2-((2R,5R)-2-(methoxymethyl)-5-methylpiperazin-1-yl)acetyl)-3,3-dimethyl-2,3-dihydro-1H-pyrrolo[3,2-b]pyridin-6-yl)methyl)phenoxy)-23-phenyl-3,6,9,12,15,18-hexaoxa-21-azatetracosan-24-amide]
25 to 50% | 50 to 75% | COC[C@H]1CN[C@H](C)CN1CC(=O)N1CC(C)(C)c2nc(CN(C)CCOCCOCCOCCOCCOCCNC[C@@H](C(=O)Nc3ccc4cnccc4c3)c3ccccc3)c(Cc3ccc(F)cc3)cc21 [Example 40, (S)-1-(6-(4-Fluorobenzyl)-1-(2-((2R,5R)-2-(methoxymethyl)-5-methylpiperazin-1-yl)acetyl)-3,3-dimethyl-2,3-dihydro-1H-pyrrolo[3,2-b]pyridin-5-yl)-N-(isoquinolin-6-yl)-2-methyl-22-phenyl-5,8,11,14,17-pentaoxa-2,20-diazatricosan-23-amide]
< 25% | 50 to 75% | COC[C@H]1CN[C@H](C)CN1CC(=O)N1CC(C)(C)c2ncc(Cc3cccc(OCCOCCOCCOCCOCCOCCOCCOCCNC[C@@H](C(=O)Nc4ccc5cnccc5c4)c4ccccc4)c3)cc21 [Example 63, (S)-N-(Isoquinolin-6-yl)-1-(3-((1-(2-((2R,5R)-2-(methoxymethyl)-5-methylpiperazin-1-yl)acetyl)-3,3-dimethyl-2,3-dihydro-1H-pyrrolo[3,2-b]pyridin-6-yl)methyl)phenoxy)-26-phenyl-3,6,9,12,15,18,21-heptaoxa-24-azaheptacosan-27-amide]
